Results reported in paper PMC11062899, “De novo development of small cyclic peptides that are orally bioavailable” (Nature Chemical Biology, 2023).
Values joined by “and” are separate entries in the source; they are usually repeats but may differ in a detail not shown here. Equal values may be shown once. Blank lines part the entries; values can stand above or below the compound they belong to.

Tests used:
rat α-thrombin = biological target: T1, rat α-thrombin (Rattus norvegicus, UniProt P18292); assay: Protease inhibition, Ki for rat α-thrombin (fluorogenic substrate Z-Gly-Gly-Arg-AMC); format: biochemical; conditions: replicates R1-R3
T1 construct: rat α-thrombin (Molecular Innovations) were used at final concentrations of 2 nM and 3 nM; purchased Molecular Innovations
In short: (§1)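 Ki derived through Cheng–Prusoff from IC50s (four-parameter logistic fit) against activity of peptide-free controls. Product fluorescence was read every 3 min over 30 min at 25 °C, substrate Z-Gly-Gly-Arg-AMC at 50 μM. Enzyme was 2 nM human or 3 nM rat α-thrombin, pH 7.4 buffer.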

[1] = Metabolic stability in rat liver microsomes (RLMs); conditions: rat, microsomes
porcine pepsin = biological target: T2, porcine pepsin (Sus scrofa, UniProt P00791); assay: Peptide stability in simulated gastric fluid (SGF); format: in vitro ADME; conditions: for SGF stability, Residual peptide Average / SGF stability, Residual peptide: after 8 h vs 0 h (TIC); for SGF stability, Residual peptide Average: average of R1-R3; for SGF stability, Residual peptide: single replicates R1-R3; for remaining at 8 h: simulated gi fluid, 37 °C, pH 1.2, read-out: Proteolytic stability: SGF (8 h) % remaining
T2 construct: 0.32 g of porcine pepsin (Sigma-Aldrich, P7125) was dissolved under gentle agitation; purchased Sigma-Aldrich P7125
T2 sequence (P00791 60-385): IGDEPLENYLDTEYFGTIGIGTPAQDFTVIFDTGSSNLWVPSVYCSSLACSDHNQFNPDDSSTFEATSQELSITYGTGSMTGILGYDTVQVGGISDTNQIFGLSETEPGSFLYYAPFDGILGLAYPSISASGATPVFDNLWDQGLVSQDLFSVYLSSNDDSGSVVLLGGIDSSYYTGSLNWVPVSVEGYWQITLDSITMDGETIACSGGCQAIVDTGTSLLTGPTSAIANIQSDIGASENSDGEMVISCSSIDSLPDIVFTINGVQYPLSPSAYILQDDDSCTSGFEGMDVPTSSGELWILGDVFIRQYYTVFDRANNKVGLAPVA
In short: (§2)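 Peptide from a 1 mM DMSO stock was added to fluid pre-warmed at 37 °C. SGF was pH 1.2 NaCl with porcine pepsin (0.32 g per 100 ml), and SIF was pH 6.8 potassium phosphate with porcine pancreatin (1 g per 100 ml). Supernatant peptide was quantified by LC–MS, with residual expressed as T1/T0.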

[2] = Peptide stability in simulated intestinal fluid (SIF); format: in vitro ADME, porcine; conditions: simulated gi fluid; 8 h, 37 °C, pH 6.8; read-out: Proteolytic stability: SIF (8 h) % remaining
In short: as §2

porcine pancreatin = assay: as above; format: in vitro ADME; conditions: after 8 h vs 0 h (TIC); for SIF stability, Residual peptide Average: average of R1-R3; for SIF stability, Residual peptide: single replicates R1-R3
In short: as §2

[3] = Passive artificial membrane permeability (PAMPA); conditions: for PAMPA permeability: % permeability: 50 μM, 12–18 h, acceptor concentration relative to equilibrium; for Papp at 50 μM / Permeability% Average / Permeability% R1 / Permeability% R3: PAMPA; for Papp at 50 μM: pH 7.4; for Permeability% Average: average of R1-R3; for Permeability% R1: replicate R1; for Permeability% R1 / Permeability% R3: TIC of top well sample relative to sample at theoretical equilibrium; for Permeability% R3: replicate R3
human α-thrombin = human α-thrombin (Homo sapiens, UniProt P00734); assay: Protease inhibition, Ki for human α-thrombin (fluorogenic substrate Z-Gly-Gly-Arg-AMC); format: biochemical; conditions: replicates R1-R3
In short: as §1

[4] = peptide 1.33E+02 uM, slope of proteolytic substrate cleavage over time
[5] = CL (ul/min/mg protein) R1, RLM CL, replicate R1
[6] = CL (ul/min/mg protein) R2, RLM CL, replicate R2
[7] = CL (ul/min/mg protein) R3, RLM CL, replicate R3
[8] = Half Life (min) R1, RLM metabolic stability, replicate R1, 0-60 min
[9] = Half Life (min) R2, RLM metabolic stability, replicate R2, 0-60 min
[10] = Half Life (min) R3, RLM metabolic stability, replicate R3, 0-60 min
[11] = Metabolic stability: Half life T1/2 (min), RLMs, mean and SD, three measurements
[12] = Metabolic stability: RLM CL (ul/min/mg), RLMs, mean and SD, three measurements

Rat alpha thrombin inhibition, slope normalized to DMSO (rat α-thrombin; [4]): 2.7 and 0.9 and 1.3
Rat alpha thrombin inhibition, slope normalized to DMSO (rat α-thrombin; peptide 1.67E+01 uM): 3.2 and 2.7 and 2.4
Rat alpha thrombin inhibition, slope normalized to DMSO (rat α-thrombin; peptide 2.08E+00 uM): 15.0 and 14.2 (2×)
Rat alpha thrombin inhibition, slope normalized to DMSO (rat α-thrombin; peptide 3.33E+01 uM): 3.0 and 2.9 and 1.6
Rat alpha thrombin inhibition, slope normalized to DMSO (rat α-thrombin; peptide 4.17E+00 uM): 8.4 and 7.9 and 15.6
Rat alpha thrombin inhibition, slope normalized to DMSO (rat α-thrombin; peptide 6.67E+01 uM): 2.7 and 2.1 and 0.8
Rat alpha thrombin inhibition, slope normalized to DMSO (rat α-thrombin; peptide 8.33E+00 uM): 4.8 and 3.7 and 3.3
microsomal CLint [1, 5]: 102 µL/min/mg
microsomal CLint [1, 6]: 60.2 µL/min/mg
microsomal CLint [1, 7]: 85 µL/min/mg
half-life [1, 8]: 13.6 min
half-life [1, 9]: 23 min
half-life [1, 10]: 16.3 min
half-life [1, 11]: 17.6 ± 4 min
microsomal CLint [1, 12]: 82 ± 17 µL/min/mg
SGF stability, Residual peptide Average (porcine pepsin): 96.77
SGF stability, Residual peptide (porcine pepsin): 95.02 and 96.82 and 98.46
remaining at 8 h (porcine pepsin): 97 ± 2%
remaining at 8 h [2]: 73 ± 14%
SIF stability, Residual peptide Average (porcine pancreatin): 72.44
SIF stability, Residual peptide (porcine pancreatin): 71.05 and 59.57 and 86.70
PAMPA permeability: % permeability [3]: 17 ± 5%
Papp at 50 μM [3]: 1.2 ×10⁻⁶ cm/s
Permeability% Average [3]: 17.0%
Permeability% R1 [3]: 13.02%
Permeability% R3 [3]: 21.96%
Human alpha thrombin inhibition, slope normalized to DMSO (human α-thrombin; peptide 1.02E-03 uM): 103.5 and 98.1 and 102.6
Human alpha thrombin inhibition, slope normalized to DMSO (human α-thrombin; peptide 1.04E+00 uM): 51.0 and 46.3 and 53.8
Human alpha thrombin inhibition, slope normalized to DMSO (human α-thrombin; peptide 1.27E-04 uM): 101.6 (2×) and 101.3
Human alpha thrombin inhibition, slope normalized to DMSO (human α-thrombin; peptide 1.30E-01 uM): 84.8 and 85.3 and 87.8
Human alpha thrombin inhibition, slope normalized to DMSO (human α-thrombin; [4]): 2.9 and 4.3 and 7.1
Human alpha thrombin inhibition, slope normalized to DMSO (human α-thrombin; peptide 1.63E-02 uM): 94.6 and 91.7 and 97.3
Human alpha thrombin inhibition, slope normalized to DMSO (human α-thrombin; peptide 1.67E+01 uM): 6.9 and 8.0 and 8.2
Human alpha thrombin inhibition, slope normalized to DMSO (human α-thrombin; peptide 2.03E-03 uM): 83.6 and 95.2 and 99.1
Human alpha thrombin inhibition, slope normalized to DMSO (human α-thrombin; peptide 2.08E+00 uM): 39.4 and 34.7 and 41.2
Human alpha thrombin inhibition, slope normalized to DMSO (human α-thrombin; peptide 2.54E-04 uM): 100.6 and 99.2 and 101.0
Human alpha thrombin inhibition, slope normalized to DMSO (human α-thrombin; peptide 2.60E-01 uM): 69.7 and 83.0 and 22.1
Human alpha thrombin inhibition, slope normalized to DMSO (human α-thrombin; peptide 3.18E-05 uM): 102.2 and 99.2 and 102.0
Human alpha thrombin inhibition, slope normalized to DMSO (human α-thrombin; peptide 3.26E-02 uM): 94.2 and 94.0 and 90.4
Human alpha thrombin inhibition, slope normalized to DMSO (human α-thrombin; peptide 3.33E+01 uM): 5.8 (2×) and 6.2
Human alpha thrombin inhibition, slope normalized to DMSO (human α-thrombin; peptide 4.07E-03 uM): 90.8 and 94.4 and 95.3
Human alpha thrombin inhibition, slope normalized to DMSO (human α-thrombin; peptide 4.17E+00 uM): 22.8 and 22.7 and 20.6
Human alpha thrombin inhibition, slope normalized to DMSO (human α-thrombin; peptide 5.09E-04 uM): 101.7 and 100.4 and 99.5
Human alpha thrombin inhibition, slope normalized to DMSO (human α-thrombin; peptide 5.21E-01 uM): 67.4 and 67.9 and 63.6
Human alpha thrombin inhibition, slope normalized to DMSO (human α-thrombin; peptide 6.36E-05 uM): 101.4 and 100.0 and 102.5
Human alpha thrombin inhibition, slope normalized to DMSO (human α-thrombin; peptide 6.51E-02 uM): 98.0 and 95.1 and 90.8
Human alpha thrombin inhibition, slope normalized to DMSO (human α-thrombin; peptide 6.67E+01 uM): 5.7 and 4.5 and 9.4
Human alpha thrombin inhibition, slope normalized to DMSO (human α-thrombin; peptide 8.14E-03 uM): 81.7 and 101.4 and 94.1
Human alpha thrombin inhibition, slope normalized to DMSO (human α-thrombin; peptide 8.33E+00 uM): 13.3 and 14.1 and 15.9
Compound: O=C1CCSCc2ccc(cc2)CSCCNC(=O)[C@H](CNC(=O)c2ccc(Cl)s2)NC(=O)[C@H](Cc2ccccn2)N1 [compound 21]

Rat alpha thrombin inhibition, slope normalized to DMSO (rat α-thrombin; [4]): 14.8 and 14.9 and 15.8
Rat alpha thrombin inhibition, slope normalized to DMSO (rat α-thrombin; peptide 1.67E+01 uM): 13.6 and 25.5 and 34.3
Rat alpha thrombin inhibition, slope normalized to DMSO (rat α-thrombin; peptide 2.08E+00 uM): 26.5 and 27.8 and 27.7
Rat alpha thrombin inhibition, slope normalized to DMSO (rat α-thrombin; peptide 3.33E+01 uM): 22.7 and 27.1 and 25.7
Rat alpha thrombin inhibition, slope normalized to DMSO (rat α-thrombin; peptide 4.17E+00 uM): 20.6 (2×) and 20.4
Rat alpha thrombin inhibition, slope normalized to DMSO (rat α-thrombin; peptide 6.67E+01 uM): 19.9 and 22.5 and 21.1
Rat alpha thrombin inhibition, slope normalized to DMSO (rat α-thrombin; peptide 8.33E+00 uM): 13.5 and 20.1 and 24.1
microsomal CLint [1, 5]: 73.3 µL/min/mg
microsomal CLint [1, 6]: 121 µL/min/mg
microsomal CLint [1, 7]: 129 µL/min/mg
half-life [1, 8]: 18.9 min
half-life [1, 9]: 11.4 min
half-life [1, 10]: 10.8 min
half-life [1, 11]: 13.7 ± 3.7 min
microsomal CLint [1, 12]: 108 ± 25 µL/min/mg
SGF stability, Residual peptide Average (porcine pepsin): 97.08
SGF stability, Residual peptide (porcine pepsin): 97.29 and 98.54 and 95.42
remaining at 8 h (porcine pepsin): 97 ± 2%
remaining at 8 h [2]: 88 ± 5%
SIF stability, Residual peptide Average (porcine pancreatin): 88.29
SIF stability, Residual peptide (porcine pancreatin): 90.18 and 82.19 and 92.51
PAMPA permeability: % permeability [3]: 4.3 ± 1.6%
Papp at 50 μM [3]: 0.275 ×10⁻⁶ cm/s
Permeability% Average [3]: 4.3%
Permeability% R1 [3]: 2.49%
Permeability% R3 [3]: 5.45%
Human alpha thrombin inhibition, slope normalized to DMSO (human α-thrombin; peptide 1.02E-03 uM): 99.9 and 93.8 and 93.5
Human alpha thrombin inhibition, slope normalized to DMSO (human α-thrombin; peptide 1.04E+00 uM): 74.0 and 69.6 and 63.3
Human alpha thrombin inhibition, slope normalized to DMSO (human α-thrombin; peptide 1.27E-04 uM): 95.9 and 97.1 and 89.9
Human alpha thrombin inhibition, slope normalized to DMSO (human α-thrombin; peptide 1.30E-01 uM): 97.4 and 88.7 and 84.7
Human alpha thrombin inhibition, slope normalized to DMSO (human α-thrombin; [4]): 48.0 and 48.9 and 38.9
Human alpha thrombin inhibition, slope normalized to DMSO (human α-thrombin; peptide 1.63E-02 uM): 100.4 and 97.8 and 90.3
Human alpha thrombin inhibition, slope normalized to DMSO (human α-thrombin; peptide 1.67E+01 uM): 53.6 and 73.4 and 36.5
Human alpha thrombin inhibition, slope normalized to DMSO (human α-thrombin; peptide 2.03E-03 uM): 104.9 and 96.2 and 90.3
Human alpha thrombin inhibition, slope normalized to DMSO (human α-thrombin; peptide 2.08E+00 uM): 55.5 and 68.9 and 56.1
Human alpha thrombin inhibition, slope normalized to DMSO (human α-thrombin; peptide 2.54E-04 uM): 98.8 and 99.4 and 90.5
Human alpha thrombin inhibition, slope normalized to DMSO (human α-thrombin; peptide 2.60E-01 uM): 80.8 and 89.0 and 86.0
Human alpha thrombin inhibition, slope normalized to DMSO (human α-thrombin; peptide 3.18E-05 uM): 84.7 and 96.5 and 92.2
Human alpha thrombin inhibition, slope normalized to DMSO (human α-thrombin; peptide 3.26E-02 uM): 93.0 and 90.7 and 88.1
Human alpha thrombin inhibition, slope normalized to DMSO (human α-thrombin; peptide 3.33E+01 uM): 66.3 and 62.6 and 52.3
Human alpha thrombin inhibition, slope normalized to DMSO (human α-thrombin; peptide 4.07E-03 uM): 103.1 and 97.8 and 89.7
Human alpha thrombin inhibition, slope normalized to DMSO (human α-thrombin; peptide 4.17E+00 uM): 60.4 and 78.0 and 53.8
Human alpha thrombin inhibition, slope normalized to DMSO (human α-thrombin; peptide 5.09E-04 uM): 103.6 and 97.9 and 97.0
Human alpha thrombin inhibition, slope normalized to DMSO (human α-thrombin; peptide 5.21E-01 uM): 81.6 and 82.6 and 73.0
Human alpha thrombin inhibition, slope normalized to DMSO (human α-thrombin; peptide 6.36E-05 uM): 100.1 and 99.2 and 93.6
Human alpha thrombin inhibition, slope normalized to DMSO (human α-thrombin; peptide 6.51E-02 uM): 92.5 and 99.9 and 84.8
Human alpha thrombin inhibition, slope normalized to DMSO (human α-thrombin; peptide 6.67E+01 uM): 54.4 and 57.2 and 52.4
Human alpha thrombin inhibition, slope normalized to DMSO (human α-thrombin; peptide 8.14E-03 uM): 104.4 and 96.4 and 91.9
Human alpha thrombin inhibition, slope normalized to DMSO (human α-thrombin; peptide 8.33E+00 uM): 36.8 and 64.2 and 38.3
Compound: C[C@@H]1NC(=O)[C@@H](NC(=O)c2ccc(Cl)s2)CSCc2cccc(n2)CSCCNC(=O)c2ccc(cc2)CNC1=O [compound 26]
